Laboratory results published in patent US20240122180A1, “FUNGICIDAL HALOMETHYL KETONES AND HYDRATES AND THEIR MIXTURES” (FMC Corporation, priority 2020, published 2024).
Marks after values point to notes of the source that are not given here.

What was measured:
Type in all cases: in vivo
[1] = system: Phakopsora pachyrhizi (the causal agent of Asian soybean rust); experiment: Test A: preventive spray on soybean seedlings, visual disease rating (100 = 100% control; * 50 ppm, ** 10 ppm, *** 250 ppm); details: 100 = 100% disease control
Summary of the method: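 Preventive test: one day after spraying compound (acetone/water suspension, 250 ppm PEG400), seedlings received rust spore inoculum, 24 h in saturated air then 8 days in growth chamber, both at 22 °C. Disease control scored visually, 100 = complete, 0 = none, relative to untreated controls.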

[2] = system: Puccinia recondita f. sp. tritici (the causal agent of wheat leaf rust); experiment: Test B: preventive spray on wheat seedlings, disease rating (100 = 100% control; * 50 ppm, ** 10 ppm, *** 250 ppm); details: 100 = 100% disease control; for pest or weed control at 250 ppm / pest or weed control at 10 ppm / pest or weed control at 50 ppm: Puccinia recondita; for pest or weed control at 250 ppm: 250 ppm test suspension
Summary of the method: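 Preventive test: Puccinia recondita f. sp. tritici spores were inoculated one day after run-off spraying of wheat seedlings with test suspension (acetone/water 50/50, 250 ppm PEG400). After 24 h in saturated air and 6 days in a growth chamber, both at 20° C, control was scored 0–100 versus untreated plants.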

[3] = system: Blumeria graminis f. sp. tritici (the causal agent of wheat powdery mildew); experiment: Test E: preventive spray on wheat seedlings, visual disease rating (100 = 100% control; * 50 ppm, ** 10 ppm, *** 250 ppm); details: 100 = 100% disease control; for Test E disease control rating / pest or weed control at 250 ppm: 250 ppm test suspension
Description: (§1) General protocol for preparing test suspensions for Tests A-E: the test compounds were first dissolved in acetone in an amount equal to 3% of the final volume and then suspended at the desired concentration (in ppm) in acetone and purified water (50/50 mix by volume) containing 250 ppm of the surfactant […] (polyhydric alcohol esters). The resulting test suspensions were then used in Tests A-E.
The test suspension was sprayed to the point of run-off on wheat seedlings. The following day the seedlings were inoculated with a spore dust of Blumeria graminis f. sp. tritici, (also known as Erysiphe graminis f. sp. tritici, the causal agent of wheat powdery mildew) and incubated in a growth chamber at 20° C. for 8 days, after which time visual disease ratings were made.
(§2) Results for Tests A-E are given in Table A. In the Table, a rating of 100 indicates 100% disease control and a rating of 0 indicates no disease control (relative to the controls). An asterisk “*” or a double asterisk “**” or a triple asterisk “***” next to the rating value indicates a 50 ppm, 10 ppm and 250 ppm test suspension was used, respectively. A dash (-) indicates the compound was not tested.

[4] = system: Zymoseptoria tritici (the causal agent of wheat leaf blotch); experiment: Test D: preventive spray on wheat seedlings, disease rating (100 = 100% control; * 50 ppm, ** 10 ppm, *** 250 ppm); details: 250 ppm test suspension, 100 = 100% disease control; for pest or weed control at 250 ppm: Zymoseptoria tritici
Description: as §1
The test solution was sprayed to the point of run-off on wheat seedlings. The following day the seedlings were inoculated with a spore suspension of Zymoseptoria tritici (the causal agent of wheat leaf blotch) and incubated in a saturated atmosphere at 24° C. for 48 h, and then moved to a growth chamber at 20° C. for 17 days, after which time disease ratings were made.
as §2

[5] = system: Uncinula necator (the causal agent of grape powdery mildew); experiment: Test C: preventive spray on grape seedlings, disease rating (100 = 100% control; * 50 ppm, ** 10 ppm, *** 250 ppm); details: Erysiphe necator; 50 ppm test suspension; 100 = 100% disease control, 0 = no control
Description: as §1
The test solution was sprayed to the point of run-off on grape seedlings. The following day the seedlings were inoculated with a spore suspension of Uncinula necator (the causal agent of grape powdery mildew) and incubated in a growth chamber at 20° C. for 12 days, after which time disease ratings were made.
as §2

[6] = system: Phakopsora pachyrhizi (the causal agent of Asian soybean rust); experiment: Test F: Compound 32 or 64 alone and in mixtures on soybean seedlings, observed (Obsd) and Colby expected (Exp) disease control; details: Phakopsora pachyrhizi; for pest or weed control at 0.303 ppm: Compound 64 0.303 ppm alone; for pest or weed control at 0.489 ppm: Compound 64 0.489 ppm alone
Description: The general protocol for preparing test compositions for Test F was as follows: Compound 32, Compound 64, azoxystrobin, benzovindiflupyr, bixafen, chlorothalonil, cyproconazole, epoxiconazole, fenpropidin, fenpropimorph, fluindapyr, flutriafol, fluxapyroxad, metominostrobin, picoxystrobin, prothioconazole, pydiflumetofen, pyraclostrobin, tebuconazole and trifloxystrobin were obtained as unformulated, technical-grade materials. Copper hydroxide and mancozeb was obtained as a formulated product marketed under the trademarks KOCIDE 3000 and MANZATE, respectively. Unformulated materials were first dissolved in acetone and then suspended at the desired concentration (in ppm) in acetone and purified water (50/50 mix by volume) containing 250 ppm of the surfactant Trem® 014 (polyhydric alcohol esters). Formulated materials were dispersed in sufficient water to give the desired concentration, and neither organic solvent nor surfactant was added to the suspension. The resulting test mixtures were then used in Test F. The tests were run on four individual plants and the results reported as the mean average of the four plants.
The presence of a synergistic effect between two active ingredients was established with the aid of the Colby equation (see Colby, S. R. “Calculating Synergistic and Antagonistic Responses of Herbicide Combinations”, Weeds, (1967), 15, 20-22):
Using the method of Colby, the presence of a synergistic interaction between two active ingredients is established by first calculating the predicted activity, p, of the mixture based on activities of the two components applied alone. If p is lower than the experimentally established effect, synergism has occurred. In the equation above, A is the fungicidal activity in percentage control of one component applied alone at rate x. The B term is the fungicidal activity in percentage control of the second component applied at rate y. The equation estimates p, the expected fungicidal activity of the mixture of A at rate x with B at rate y if their effects are strictly additive and no interaction has occurred.
The test mixture was sprayed to the point of run-off on soybean seedlings. The following day the seedlings were inoculated with a spore suspension of Phakopsora pachyrhizi (the causal agent of Asian soybean rust) and incubated in a saturated atmosphere at 22° C. for 24 h and then moved to a growth chamber at 22° C. for 8 days, after which time visual disease ratings were made.
Results for Test F are given in Tables B-1 through I-1 for Compound 32 and Tables B-2 through I-2 for Compound 64. Each table corresponds to a set of evaluations performed together at the same time. In each table, a rating of 100 indicates 100% disease control and a rating of 0 indicates no disease control (relative to the controls). Columns labeled “Obsd” indicate the average of results observed from test run on four individual plants. Columns labeled “Exp” indicate the expected value for each treatment mixture using the Colby equation.

[7] = 50 ppm test suspension, 0 = no control
[8] = Blumeria graminis, wheat seedlings
[9] = 10 ppm test suspension, 0 = no control
[10] = 10 ppm test suspension, soybean seedlings
[11] = 10 ppm test suspension, wheat seedlings
[12] = 50 ppm test suspension, wheat seedlings

CCOC(=O)c1cnn(Cc2ccc(OCC(O)(O)C(F)(F)F)c(Cl)c2)c1 [Compound 459]
Test A disease control rating [1, 7]: 100% | Test B disease control rating [2, 7]: 97% | Test E disease control rating ([3]; 0 = no control): 0*** % | Test D disease control rating ([4]; 0 = no control): 37*** %

CCOC(=O)c1cnn(Cc2ccc(OCC(O)(O)C(F)(F)F)cc2)c1 [Compound 1, ethyl 1-[[4-(3,3,3-trifluoro-2,2-dihydroxypropoxy)phenyl]methyl]-1H-pyrazole-4-carboxylate]
pest or weed control at 250 ppm ([2]; wheat seedlings): 91% | pest or weed control at 250 ppm [3, 8]: 81% | pest or weed control at 250 ppm ([4]; wheat seedlings): 97%

CCOC(=O)c1cnn(Cc2ccc(O/C=C(\OCC)C(F)(F)F)c(I)c2)c1 [compound 374]
Test A disease control rating [1, 7]: 0% | Test B disease control rating [2, 7]: 0% | Test E disease control rating ([3]; 0 = no control): 76*** % | Test D disease control rating ([4]; 0 = no control): 0*** %

CCOC(=O)c1cnn(Cc2ccc(OCC3(C(F)(F)F)OCCO3)c(F)c2)c1 [Compound 263, ethyl 1-[[3-fluoro-4-[[2-(trifluoromethyl)-1,3-dioxolan-2-yl]methoxy]phenyl]methyl]-1H-pyrazole-4-carboxylate]
pest or weed control at 50 ppm [5]: 100% | pest or weed control at 10 ppm [2, 9]: 0%

CCS(=O)(=O)Cc1ccc(OCC(O)(O)C(F)(F)F)cc1 [compound 29]
Test A disease control rating [1, 10]: 84% | Test B disease control rating [2, 11]: 28% | Test E disease control rating ([3]; wheat seedlings): 79*** % | Test D disease control rating ([4]; wheat seedlings): 0*** %

CCO/C(=C\Oc1ccc(Cn2cc(C(=O)OCC(=O)c3ccccc3)cn2)cc1)C(F)(F)F [compound 244]
Test A disease control rating [1, 10]: 100% | Test B disease control rating [2, 11]: 0% | Test E disease control rating ([3]; wheat seedlings): 0*** % | Test D disease control rating ([4]; wheat seedlings): 0*** %

CC(=O)N1CC(c2ccc(OCC3(C(F)(F)F)OCCO3)cc2)C1 [compound 372]
Test A disease control rating [1, 7]: 97% | Test B disease control rating [2, 7]: 28% | Test E disease control rating ([3]; 0 = no control): 99*** % | Test D disease control rating ([4]; 0 = no control): 99*** %

CCOC(=COc1ccc(NC(=O)c2ccccc2F)cc1)C(F)(F)F [compound 461]
Test A disease control rating [1, 7]: 0% | Test B disease control rating [2, 7]: 0% | Test E disease control rating ([3]; 0 = no control): 69*** % | Test D disease control rating ([4]; 0 = no control): 53*** %

CCOC(=O)c1cnn(Cc2ccc(N(C#N)CC(O)(O)C(F)(F)F)cc2)c1 [compound 381]
Test A disease control rating [1, 9]: 25% | Test B disease control rating [2, 9]: 28% | Test E disease control rating ([3]; 0 = no control): 69*** % | Test D disease control rating ([4]; 0 = no control): 0*** %

O=[N+]([O-])c1ccc(OCC(O)(O)C(F)(F)F)cc1 [compound 280]
Test A disease control rating [1, 7]: 100% | Test B disease control rating [2, 7]: 100% | Test E disease control rating ([3]; 0 = no control): 99*** % | Test D disease control rating ([4]; 0 = no control): 99*** %

CCOC(=O)c1cnn(Cc2ccc(OCC3(C(F)(F)F)OCCO3)cn2)c1 [compound 124]
pest or weed control at 50 ppm [2, 12]: 0% | pest or weed control at 50 ppm ([3]; Blumeria graminis, 50 ppm test suspension, wheat seedlings): 98% | pest or weed control at 250 ppm ([4]; wheat seedlings): 92%

CCOC(=O)c1cnn(Cc2ccc(OCC(O)(O)C(F)(F)F)c(F)c2)c1 [Compound 264]
Test A disease control rating [1, 9]: 99% | Test B disease control rating [2, 9]: 80% | Test E disease control rating ([3]; 0 = no control): 96*** % | Test D disease control rating ([4]; 0 = no control): 95*** %

CC(=O)N1CC(c2ccc(OCC(O)(O)C(F)(F)F)cc2)C1 [compound 384]
Test A disease control rating [1, 7]: 99% | Test B disease control rating [2, 7]: 83% | Test E disease control rating ([3]; 0 = no control): 87*** % | Test D disease control rating ([4]; 0 = no control): 48*** %

COC(=O)c1ccc(OCC(O)(O)C(F)(F)F)cc1 [Compound 229, methyl 4-(3,3,3-trifluoro-2,2-dihydroxypropoxy)phenylcarboxylate]
pest or weed control at 50 ppm [2, 12]: 100% | pest or weed control at 250 ppm [3, 8]: 99% | pest or weed control at 250 ppm ([4]; wheat seedlings): 96%

CCOC(=O)c1cnn(Cc2ccc(O/C=C(\OCC)C(F)(F)F)cc2)c1 [Compound 64, ethyl 1-[[4-[[(1Z)-2-ethoxy-3,3,3-trifluoro-1-propen-1-yl]oxy]phenyl]methyl]-1H-pyrazole-4-carboxylate]
pest or weed control at 250 ppm ([2]; wheat seedlings): 99% | pest or weed control at 0.303 ppm ([6]; Table B-2): 53% | pest or weed control at 0.303 ppm ([6]; Table C-2): 34% | pest or weed control at 0.303 ppm ([6]; Table D-2): 49% | pest or weed control at 0.303 ppm ([6]; Table E-2): 78% | pest or weed control at 0.303 ppm ([6]; Table F-2): 37% | pest or weed control at 0.303 ppm ([6]; Table G-2): 52% | pest or weed control at 0.303 ppm ([6]; Table H-2): 50% | pest or weed control at 0.303 ppm ([6]; Table I-2): 50% | pest or weed control at 0.489 ppm ([6]; Table B-2): 68% | pest or weed control at 0.489 ppm ([6]; Table C-2): 63% | pest or weed control at 0.489 ppm ([6]; Table D-2): 63% | pest or weed control at 0.489 ppm ([6]; Table E-2): 77% | pest or weed control at 0.489 ppm ([6]; Table F-2): 68% | pest or weed control at 0.489 ppm ([6]; Table G-2): 50% | pest or weed control at 0.489 ppm ([6]; Table H-2): 70% | pest or weed control at 0.489 ppm ([6]; Table I-2): 81% | pest or weed control at 250 ppm [3, 8]: 99% | pest or weed control at 250 ppm ([4]; wheat seedlings): 73%

CCOC(=O)c1cnn(COc2cccc(OCC(O)(O)C(F)(F)F)c2)c1 [compound 320]
pest or weed control at 10 ppm ([1]; Phakopsora pachyrhizi, 10 ppm test suspension, 0 = no control): 89% | pest or weed control at 10 ppm [2, 9]: 68% | pest or weed control at 250 ppm ([3]; Blumeria graminis, 0 = no control): 91% | pest or weed control at 250 ppm ([4]; 0 = no control): 81%
